For this data set the following is noted: rat; liver microsomes; pH 7.4; 15.0 min; 1.0 µM. (In general: Microsomes from liver hold many membrane-bound enzymes, among them those of drug oxidation.)
The compound `CC(=O)N1CCc2c(sc3c2c(=O)n(-c2ccccc2Cl)c(=O)n3Cc2cccc(C)c2)C1` yielded a half-life of 1.41 min.

Compound `CC(=O)c1sc(NC(=O)c2ccco2)nc1-c1ccccc1` returned a half-life of 1.8 min.

`Cc1ccc(S(=O)(=O)Nc2cnccc2C(=O)Nc2ccc(N3CCOCC3)cc2)cc1` had a half-life of 23 min.

`N[C@H]1CN(c2c(F)cc3c(=O)c(C(=O)O)cn(C4C[C@@H]4F)c3c2Cl)CC12CC2` (stereo not given in full) gave a half-life greater than 30 min.

On to `CC(=O)NCc1ccc(-c2csc(Nc3cc(C)cc(C)c3)n2)o1`, for which the half-life was greater than 30 min.

`Cc1nn2c(c1-c1ccccc1-c1ccccc1)N(Cc1ccc(C(=O)O)s1)CCC2`: the half-life was determined as 7.81 min.

On to `CCCCOc1ccc(C2c3c(oc4ccc(C)cc4c3=O)C(=O)N2CCCN(C)C)cc1OCC` (stereo not given), for which the half-life is 25.9 min.

As to `CC/C=C\C/C=C\C/C=C\C/C=C\C/C=C\C/C=C\CCC(=O)NCCO`, the half-life was 4.94 min.

`Cc1ccc(S(=O)(=O)Nc2cnccc2C(=O)Nc2nc(-c3ccc4c(c3)CCCC4)cs2)cc1` gave a half-life of 2.3 min.

`O=[S+]([O-])(Nc1ccccc1)c1ccc(NCc2ccc(Cl)cc2O)cc1` displayed a half-life of 1.8 min.

For `O=S(=O)(Nc1nccs1)c1ccc(NCc2cccc(Br)c2O)cc1`, the half-life is 14 min.

Turning to `Cc1ccc(S(=O)(=O)Nc2cccc(C(=O)Nc3nc(-c4ccccc4)cs3)c2Cl)cc1`, the half-life worked out at 15 min.

`Cc1cc(C)c(C(=O)Nc2cccc([S+](=O)([O-])Nc3ccc(Br)cc3)c2)[nH]1` gave a half-life of 7.7 min.

Compound `Cc1cc(Oc2ccc(N)cn2)ccc1Cl` yielded a half-life of 17.8 min.

`Fc1ccc(-c2csc3ncnc(Sc4nnnn4-c4ccccc4)c23)cc1` returned a half-life of 1.6 min.

Consider `Cc1noc(C)c1-c1ccc2ncnc(NCc3cccc(Cl)c3)c2c1`, for which the half-life amounted to 5.19 min.

For `COc1ccc(C[C@@H]2C(=O)N[C@H](C)C(=O)N(C)[C@@H]3C(=O)N(C)[C@@H](Cc4ccc(O)c(c4)Oc4ccc(cc4)[C@H]3O)C(=O)N[C@@H](C)C(=O)N[C@H](C)C(=O)N2C)cc1`, the half-life was 27.6 min.

`O=S(=O)(Nc1cccc2ccccc12)c1ccc(NCc2cccc(Cl)c2O)cc1` registered a half-life of 4.3 min.

For `O=C(NCc1ccc(N2CCCC2)nc1)c1cc(Cl)ccc1O`, the half-life was found to be 1.9 min.

Turning to `CCOc1ccc(CNC(=O)CCCn2nc(C)c3c(C)n(-c4ccc(C)cc4)nc3c2=O)cc1`, the half-life was found to be 3.01 min.

In turn, `O=C(CNC12CC3CC(CC(C3)C1)C2)c1ccc(Cl)cc1` gave a half-life of 2.2 min.

Compound `Cc1cccc(-n2cnc3cc(C(=O)N4CCCC(C)C4)ccc32)c1` (stereo not given) displayed a half-life of 2.5 min. The half-life values of the last two compounds are within 1.5-fold of each other.

`CC1=Nc2cc(C(=O)NCc3ccccc3Cl)ccc2Sc2c(C)ccc(C)c21` showed a half-life of 1.96 min.

`O=C(O)c1ccnc2cc(C(OCCN3CCCCC3)c3ccccc3Cl)[nH]c12` (stereo not given) came in with a half-life greater than 30 min.

`O=S(=O)(Nc1nccs1)c1ccc(NCc2cccc(Cl)c2Cl)cc1`: the half-life stood at 25 min.

Compound `CCOC(=O)c1nnc(N[S+](=O)([O-])c2ccc(NC(=O)Cc3ccc(Cl)c(Cl)c3)cc2)s1` showed a half-life of 6 min. Against the preceding compound, the half-life is about 4.2-fold lower.

As for `O=[S+]([O-])(Nc1cccc2ccccc12)c1ccc(NCc2ccc(Cl)cc2O)cc1`, the half-life was 5.4 min.

On to `CC(C)(C)c1ccc(-c2nc(SCCCOc3ccccc3)n3[nH]c(=O)cc3n2)cc1`, for which the half-life is greater than 30 min.

`Nc1nc2c(s1)C(c1cccc(F)c1F)CC(=O)N2` (stereo not given) had a half-life greater than 30 min.

Compound `CN1CCN(c2ccc(Nc3nc(-c4ccncc4)nc4ccccc34)cc2F)CC1` returned a half-life of 8.8 min.

In turn, `COc1ccc(C2=Nc3ccc(Br)cc3C(c3ccccc3)N2CC(=O)NN)cc1` (stereo not given) returned a half-life of 8.16 min.

Compound `COc1cc2c(c(OC)c1OC)-c1ccc(SC)c(=O)cc1C(N)CC2` (stereo not given) yielded a half-life of 9.88 min.

The compound `O=C(Nc1ccc(N2CCC(N3CCCCC3)CC2)c(C(=O)O)c1)c1ccc(Br)cc1` registered a half-life greater than 30 min.

Take `Cn1ccc2c(C(=O)NCC3CCC(=O)N3)nc(-c3ccccc3C#N)cc21` (stereo not given): the half-life worked out at 21.9 min.

As for `O=C(Nc1ncc(Cc2ccc(C(F)(F)F)cc2)s1)c1cnc(-c2ccccc2)s1`, the half-life is greater than 30 min.

For `Cn1cnc2c(F)c(Nc3ccc(Br)cc3Cl)c(C(=O)NOCCO)cc21`, the half-life is greater than 30 min.

The compound `N#Cc1c(NC(=O)c2cccc3ccccc23)sc2c1CCCC2` gave a half-life of 7.59 min.

`Fc1ccc(Nc2nccc(-c3ccncc3)n2)cc1F` gave a half-life of 16 min.

The compound `Cc1ccc(S(=O)(=O)N[C@@H](Cc2ccccc2)C(=O)CCl)cc1` showed a half-life of 2.36 min.

Take `CCOC(=O)C1=C(CN(CC)Cc2ccccc2)NC(=O)NC1c1ccc(OC(C)C)cc1` (stereo not given): the half-life was found to be 1.2 min.

The compound `O=C(NCc1cccc(C(F)(F)F)c1)c1ccc(CN2CCCCC2)cc1` came in with a half-life of 15 min.

`Fc1ccc(N2CCCN(CC3[C@H]4CNC[C@@H]34)CC2)cc1` (stereo not given in full) gave a half-life greater than 30 min.

`O=C1Nc2ccc(C(=O)c3ccco3)cc2/C1=C/c1cc(Cl)c(O)c(Cl)c1` returned a half-life of 7.7 min.

`COc1ccc(OC)c(CNc2ncnc3onc(C)c23)c1` yielded a half-life of 5.68 min.

`Cc1cnc(-c2ccccc2C(C)C)nc1NCC1CN(c2cccnc2)C1` registered a half-life of 2.6 min.

Compound `CCCCC1CCC(C(=O)Nc2ccc(S(=O)(=O)Nc3nccs3)cc2)CC1` (stereo not given) yielded a half-life greater than 30 min.

In turn, `Cc1nn(CC(=O)NCCCN2CCC(N3CCCCC3)CC2)c(=O)c2cc(-c3ccccc3)nn12` displayed a half-life of 13 min.

Compound `COc1ccc(Nc2ncc(C(=O)Nc3cccc(Cl)c3)c3ccccc23)cc1` showed a half-life of 16.5 min.

`Cc1ccnc(NC(=S)N2CCN(c3ccc(C(F)(F)F)cc3[N+](=O)[O-])CC2)c1` returned a half-life greater than 30 min.

`CSc1ccc(/C=C/c2nc3ccccc3n2S(=O)(=O)c2cccc(Cl)c2)cc1`: the half-life stood at 3.54 min.

Compound `Fc1ccc(CNc2cc3c(cn2)CN(Cc2ccncc2)CCN3)cc1` showed a half-life of 15.9 min. This half-life lies about 4.5-fold higher than the previous one.

`Cc1ccccc1NC(=O)Nc1cccs1` showed a half-life greater than 30 min.

The compound `CCCc1c(CC)c(=N)c2ccccc2n1C` came in with a half-life greater than 30 min.

`COc1ccc(OC)c(C(=O)Nc2nc(-c3ccccc3)cs2)c1` registered a half-life of 20 min.

The compound `CNc1oc(-c2cccc3ccccc23)nc1C(=O)Nc1cccc(C#N)c1` showed a half-life of 17 min. The half-life values of the last two compounds are within 1.5-fold of each other.

For the compound `CCOc1ccc(NC(=O)CSC2=Nc3ccccc3C3=NC(CC(=O)NCc4cccs4)C(=O)N23)cc1` (stereo not given), the half-life came out at 4.16 min.

Regarding `CC1=C(C(=O)Nc2ccc(Cl)cc2)C(c2ccccc2C)n2ncc(C(=O)Nc3ccc(C)cc3)c2N1` (stereo not given), the half-life was found to be 9.84 min.

`COC(=O)c1ccccc1C(=O)Nc1nc(-c2ccccc2)cs1` showed a half-life of 3 min.

With `COc1cc(=O)n2c(c1C(=O)N(C)Cc1cscn1)CCN(C(=O)c1ccc(C)cc1C)CC2`, the half-life was greater than 30 min.

`N#Cc1cccc(NC(=O)c2sc3nc4c(cc3c2N)N2CCC4CC2)c1` gave a half-life of 25.6 min.

Take `O=[N+]([O-])c1ccc(CNc2ccc([S+](=O)([O-])Nc3nccs3)cc2)c(O)c1`: the half-life is 13 min. Against the preceding compound, the half-life is about 2-fold lower.

`COc1ccc(C2=Nc3ccc(C)cc3C(c3ccccc3)N2CC(=O)NN)cc1` (stereo not given) displayed a half-life of 5.3 min.

Compound `O=C1CCCC2=C1C(c1[nH]ncc1Cl)N=C(Nc1nc3cccc(Cl)c3o1)N2` (stereo not given) yielded a half-life of 4.5 min.

`O=C1Nc2ccccc2/C1=C/c1cccc(C(=O)O)c1` registered a half-life greater than 30 min.

With `COc1cccc(CNc2ccc(S(=O)(=O)Nc3ccccn3)cc2)c1O`, the half-life was greater than 30 min.

For the compound `COc1ccc(C)cc1NS(=O)(=O)c1ccc(-c2cnc(C3CC3)o2)cc1`, the half-life is 3.38 min.

Take `O=C1Nc2ccccc2/C1=C\c1ccc(C(=O)O)cc1`: the half-life is greater than 30 min.

As to `O=c1cc(/C=C/c2c(F)cccc2Cl)[nH]c2ccccc12`, the half-life is 17.8 min.

Consider `Cc1ccccc1C(=O)N1CCc2cc(N3CCC(NC(=O)Cc4ccccc4)C3)ccc21` (stereo not given), for which the half-life is 11 min. This half-life lies about 1.6-fold lower than the previous one.

`Cc1ccc(-c2nc(NCC(=O)Nc3cccc(C(=O)O)c3)c3ccccc3n2)cc1` gave a half-life greater than 30 min.

Consider `CCc1ccc2ncc(C(=O)c3ccc(C)c(C)c3)c(N3CCC(C(N)=O)CC3)c2c1`, for which the half-life was found to be 1.47 min.

Compound `FC(F)(F)c1ccc(N2CCN(C(=S)Nc3ccccn3)CC2)cc1` came in with a half-life greater than 30 min.

Compound `CCN1CCN(c2ccc(Nc3ccc(-c4ccc(C(N)=O)cc4)n4ncnc34)cc2)CC1` had a half-life greater than 30 min.

Consider `O=C(Nc1ccc2oc(-c3cccnc3)nc2c1)c1ccc(-c2ccccc2)o1`, for which the half-life came to 14.4 min.

Take `c1ccc(-c2nc(N3CCCCCC3)c3ccccc3n2)nc1`: the half-life is 2.18 min. This half-life is about 6.6-fold lower than that of the compound before.

For the compound `Cc1ccc(S(=O)(=O)NCc2ccccc2)cc1`, the half-life worked out at 1 min.

With `CCNC(=O)c1noc(-c2cc(C(C)C)c(O)cc2O)c1-c1ccc(CN2CCOCC2)cc1`, the half-life was found to be 4.7 min.

The compound `FC(F)(F)c1cc(-c2ccc(CNc3nc(-c4ccccc4C(F)(F)F)nc4ccsc34)cc2)ccn1` displayed a half-life of 14.8 min.

Compound `CC1Cc2cc(S(=O)(=O)NCc3ccc(N(C)C)cc3)ccc2N1C(=O)C1CCC1` (stereo not given) yielded a half-life of 1.73 min.

In turn, `CC(C)(C)OC(=O)N[C@@H](Cc1ccc(O[S+](=O)([O-])c2cccc3cnccc23)cc1)C(=O)N1CCN(Cc2ccccc2)CC1` had a half-life of 1.6 min.

Compound `CC(=O)N1CCc2c(sc3c2c(=O)n(-c2ccccc2)c(=O)n3Cc2cccc(C(F)(F)F)c2)C1` displayed a half-life of 25 min.

Take `Clc1ccccc1-c1nnc2sc(-c3ccc4c(c3)OCO4)nn12`: the half-life is 1.7 min.

As for `O=C(Nc1nc(-c2ccccc2)cs1)c1ccncc1NS(=O)(=O)c1ccc(-c2ccccc2)cc1`, the half-life worked out at 2 min.

For the compound `CC(=O)Nc1ccc(N[S+](=O)([O-])c2cccc(NC(=O)c3[nH]c(C)c(C(C)=O)c3C)c2)cc1`, the half-life is greater than 30 min.

Compound `Cc1nnc2c3ccccc3nc(N3CCN(c4ccccc4)CC3)n12` came in with a half-life greater than 30 min.

As for `CCOC(=O)c1ccnc(CNCC(=O)N(CC)CCN(C)C)c1`, the half-life is greater than 30 min.

`COc1ccc(NS(=O)(=O)c2ccc(C)cc2)c(C(=O)Nc2nc(-c3ccccc3)cs2)c1` returned a half-life of 4.5 min.

With `N#Cc1cccc(S(=O)(=O)Nc2cnccc2C(=O)Nc2nc(-c3ccccc3)cs2)c1`, the half-life came to 14 min.

The compound `CCC[C@H](NC(=O)/C(C#N)=C/c1cccc(Br)n1)c1ccccc1` showed a half-life greater than 30 min.

In turn, `Cc1ccccc1Nc1c(-c2ccccc2O)nc2sccn12` came in with a half-life of 2.71 min.

Broadly, the half-life is the time needed for the level to fall by half in the phase considered. The low end stands for rapid decline, the high end for slow decline.

These data come from PubChem BioAssay AID1508591.
